# Values of other authors in article PMC8202924, “Emodepside targets SLO-1 channels of Onchocerca ochengi and induces broad anthelmintic effects in a bovine model of onchocerciasis” (PLoS Pathogens, 2021).
# System: O. volvulus
# Settings: from ~10 years to 2–3 years; cited from earlier work
smiles,measurement,value
C[C@H]1c2cccc(O)c2C(=O)C2=C(O)[C@]3(O)C(=O)C(C(N)=O)=C(O)[C@@H](N(C)C)[C@@H]3[C@@H](O)[C@@H]21 [doxycycline],Reduction in worm lifespan,70–80%
